Converted amounts (≈) assume the structure as drawn. Read-outs that look alike come from different tables or passages of the source.
Legend:
[1] = tested on: Escherichia coli; test: Bactericidal activity in vitro in LB agar medium; type: cell-based; conditions: read-out: MIC (concentration needed to completely inhibit the growth of the bacteria)
Protocol: (§1) The bactericidal activity of eugenol and isoeugenol was evaluated in vitro and compared with that of other terpenes.
(§2) The culture medium used is the following LB medium:
(§3) Bactotryptone: 1% by weight
(§4) Yeast extract: 0.5% by weight
(§5) A suspension of bacteria at 10^6 CFU/ml was prepared in sterilized water from the LB medium. 200 μl of this bacterial suspension were added to 20 ml of presterilized LB culture medium brought to 55° C. The tested terpene is then added to the culture medium. After agitation, the medium is immediately divided among Petri dishes. The medium solidifies on cooling.
(§6) Incubation is carried out at 28° C. when the bacterium is Erwinia carotovora and at 37° C. when the bacterium is Escherichia coli.
(§7) The growth of mould in the culture medium is observed. The same experiment is carried out in the absence of terpene (control experiment).
(§8) The protocol used is that described above.

[2] = tested on: Penicillium digitatum; test: Germination of the spores in vitro; type: cell-based; conditions: PD
Protocol: (§9) The activity of eugenol and of isoeugenol on the germination of the spores was evaluated in vitro and compared with that of other terpenes.
(§10) The procedure of Example 4 is used to do this, except that the concentration of eugenol and of isoeugenol was set at x μg/ml in the culture media used and that 50 μl of a suspension of spores, adjusted to 100,000 spores/ml, are deposited in each Petri dish.
(§11) The same experiment was carried out starting with a terpene-free culture medium (control test).
(§12) The results were evaluated using the following assessment criteria:
(§13) +: considerable reduction in the level of spores germinated
(§14) The results obtained for 3 different concentrations of terpenes in the culture medium, namely 40 μg/ml, 80 μg/ml and 1280 μg/ml, are listed in Tables 4, 5 and 6.

[3] = tested on: Fusarium oxysporum; test: Germination of the spores in vitro; type: cell-based; conditions: FO;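 note: ++ germination like control and 0 no spores germinated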
Protocol: as §9, §10, §11, §12, §13, §14

[4] = tested on: Phlyctaena vagabonda (“Gloeosporium”); test: Germination of the spores in vitro; type: cell-based; conditions: PV;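 note: ++ germination like control and 0 no spores germinated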
Protocol: as §9, §10, §11, §12, §13, §14

[5] = tested on: Alternaria alternata; test: Germination of the spores in vitro; type: cell-based; conditions: AA;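 note: ++ germination like control and 0 no spores germinated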
Protocol: as §9, §10, §11, §12, §13, §14

[6] = tested on: Geocrichum candidum; test: Germination of the spores in vitro; type: cell-based; conditions: GC
Protocol: as §9, §10, §11, §12, §13, §14

[7] = tested on: Penicillium expansum; test: Germination of the spores in vitro; type: cell-based; conditions: PE;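 note: ++ germination like control and 0 no spores germinated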
Protocol: as §9, §10, §11, §12, §13, §14

[8] = tested on: Botrytis cinerea; test: Germination of the spores in vitro; type: cell-based; conditions: BC
Protocol: as §9, §10, §11, §12, §13, §14

[9] = tested on: Phytophtora parasitica; test: Germination of the spores in vitro; type: cell-based; conditions: PhP
Protocol: as §9, §10, §11, §12, §13, §14

[10] = tested on: species of fungus (AA, BC, FO, GC, GR, PD, PE, PV, PhP); test: Fungicidal activity in vitro: total of inhibition grades over the nine species of fungus; type: cell-based; conditions: sum of the grades over the nine fungi
Protocol: The Cristomalt medium used for the evaluations of the fungicidal activities comprises 0.1% of Cristomalt (malt extract) and 0.2% of agar.
This culture medium is, after sterilization, brought to 55° C. The terpene compound tested is then introduced in the pure form into the culture medium under warm conditions. Immediately after agitating, the medium, enriched with the terpene product, is poured into Petri dishes (diameter 9 cm, filled with 20 ml of medium). The agar-comprising medium solidifies on cooling. The Petri dishes are then inoculated with plugs, with a diameter of 6 mm, withdrawn from the edge of a culture of the tested fungus, which culture is obtained on Cristomalt medium.
Inoculation is carried out at 22° C.
The mycelial growth was determined periodically (5 to 15 days, according to the species of fungus).
The results obtained are analysed simply by using the assessment scale illustrated in Table 2:
The results obtained have been expressed in Table 3 using the scale in Table 2.

[11] = tested on: potato tubers; test: Sprouting-inhibiting treatment of potato tubers by thermal fogging; type: in vivo; conditions: after 5 months; cold room 8 to 9° C.; 45 g/tonne then 15 g/tonne every 20 days by thermal fogging
Protocol: The effectiveness of eugenol and of isoeugenol in the sprouting-inhibiting treatment of potato tubers was evaluated and compared with that of other terpenes.
The following compositions were used in the case of eucalyptol, eugenol, isoeugenol, limonene, safrole and terpineol:
60% by weight of terpene;
7% by weight of a nonionic emulsifier;
33% by weight of butyl acetate.
In the case of L-carvone, the following composition was employed:
30% by weight of L-carvone;
10% by weight of ethanol;
5% by weight of nonionic emulsifier;
35% by weight of propylene glycol.
Isopropyl chlorophenylcarbamate (CIPC) is a compound used in the art as sprouting inhibitor for potato tubers. Its activity was compared with that of eugenol and of isoeugenol.
The composition based on isopropyl chloro-phenylcarbamate has the following formulation: […]
20% by weight of isopropyl chlorophenyl-carbamate;
50% by weight of propylene glycol;
10% by weight of nonionic emulsifier;
Each of the compositions tested was applied by thermal fogging. The temperature at the outlet of the thermal fogging device was 240° C., except in the case of the compositions based on L-carvone and on CIPC, where it was 180° C.
The amount of composition which has to be applied is calculated in each case so as to obtain an equivalent concentration of active material on the potato tubers.
In this example, repeated applications were carried out by following the following protocol:
45 g/tonne of tubers at the beginning of storage;
15 g/tonne of tubers every 20 days; so that, after 6 months, 165 g of active principle have been applied per tonne of tubers.
During storage, the tubers were stored in a cold room at a temperature of 8 to 9° C.

[12] = tested on: Erwinia carotovora; test: Bactericidal activity in vitro in LB agar medium; type: cell-based; conditions: for MIC: Pectobacterium carotovorum, read-out: MIC (concentration needed to completely inhibit the growth of the bacteria)
Protocol: as §1, §2, §3, §4, §5, §6, §7
The results are evaluated using the following assessment scale:
++: mould growth identical to the control
+: mould present with a marked reduction in growth with respect to the control
: complete absence of growth.
The results obtained for 3 different concentrations, namely 20, 80 and 320 μg/ml, in the case of the bacterium Erwinia carotovora are summarized in Table 7.
as §8

[13] = Concentration 320 μg/ml, 28° C.

| Structure (SMILES) | germination of the spores ([2]; x = 40 μg/ml) | germination of the spores ([2]; x = 80 μg/ml) | germination of the spores ([2]; x = 1280 μg/ml) | germination of the spores ([3]; x = 40 μg/ml) | germination of the spores ([3]; x = 80 μg/ml) | germination of the spores ([3]; x = 1280 μg/ml) | germination of the spores ([4]; x = 40 μg/ml) | germination of the spores ([4]; x = 80 μg/ml) | germination of the spores ([4]; x = 1280 μg/ml) | germination of the spores ([5]; x = 40 μg/ml) | germination of the spores ([5]; x = 80 μg/ml) | germination of the spores ([5]; x = 1280 μg/ml) | germination of the spores ([6]; x = 40 μg/ml) | germination of the spores ([6]; x = 80 μg/ml) | germination of the spores ([6]; x = 1280 μg/ml) | germination of the spores ([7]; x = 40 μg/ml) | germination of the spores ([7]; x = 80 μg/ml) | germination of the spores ([7]; x = 1280 μg/ml) | germination of the spores ([8]; x = 40 μg/ml) | germination of the spores ([8]; x = 80 μg/ml) | other results |
| --- | --- | --- | --- | --- | --- | --- | --- | --- | --- | --- | --- | --- | --- | --- | --- | --- | --- | --- | --- | --- | --- |
| C=CCc1ccc2c(c1)OCO2 [SAFROLE, safrole] | + | + | 0 | ++ | + | 0 | + | + | 0 | ++ | + | 0 | ++ | + | 0 | + | + | + | + | 0 | MIC [1]: > 640 µg/mL; germination of the spores ([8]; x = 1280 μg/ml): 0; germination of the spores ([9]; x = 40 μg/ml): 0; germination of the spores ([9]; x = 80 μg/ml): 0; germination of the spores ([9]; x = 1280 μg/ml): 0; Total of the degrees of inhibition [10]: 42; Loss in weight of the tubers [11]: 3.6%; Total weight of the sprouts >2 mm [11]: 57.0 g; Tubers at the white point stage [11]: 6.6%; Tubers with sprouts 2 to 5 mm [11]: 40.1%; Tubers with sprouts <2 mm [11]: 15.6%; Tubers with sprouts >2 mm [11]: 76.6%; Tubers with sprouts >5 mm [11]: 36.5%; Unsprouted tubers [11]: 1.2%; growth in the culture medium with respect to the control ([12]; Concentration 20 μg/ml, 28° C.): ++; growth in the culture medium with respect to the control ([12]; Concentration 80 μg/ml, 28° C.): ++; growth in the culture medium with respect to the control [12, 13]: +; MIC [12]: 320 to 640 µg/mL (≈ 1.97 to 3.95 mM) |
| CC12CCC(CC1)C(C)(C)O2 [EUCALYPTOL, eucalyptol] | + | + | + | ++ | ++ | 0 | ++ | + | 0 | ++ | ++ | 0 | ++ | + | 0 | + | + | + | ++ | ++ | MIC ([1]; Escherichia sp., 37° C.): > 640 µg/mL; germination of the spores ([8]; x = 1280 μg/ml): 0; germination of the spores ([9]; x = 40 μg/ml): ++; germination of the spores ([9]; x = 80 μg/ml): +; germination of the spores ([9]; x = 1280 μg/ml): 0; Total of the degrees of inhibition [10]: 20; Loss in weight of the tubers [11]: 3.2%; Total weight of the sprouts >2 mm [11]: 46.2 g; Tubers at the white point stage [11]: 10.2%; Tubers with sprouts 2 to 5 mm [11]: 36.3%; Tubers with sprouts <2 mm [11]: 26.7%; Tubers with sprouts >2 mm [11]: 58.4%; Tubers with sprouts >5 mm [11]: 22.4%; Unsprouted tubers [11]: 4.4%; growth in the culture medium with respect to the control ([12]; Concentration 20 μg/ml, 28° C.): ++; growth in the culture medium with respect to the control ([12]; Concentration 80 μg/ml, 28° C.): ++; growth in the culture medium with respect to the control [12, 13]: ++; MIC ([12]; Erwinia sp., 28° C.): 320 to 640 µg/mL (≈ 2.07 to 4.15 mM) |

Source: patent publication US6723364B1, “Fog treatment method using a liquid composition for treating fruits and vegetables and implementing device” (Xeda International, priority 1998, dated 2004)
